We go through 13 compounds from ChEMBL document CHEMBL1134235, “Bisphosphonates derived from fatty acids are potent growth inhibitors of Trypanosoma cruzi” (Bioorg Med Chem Lett, 2001).

The subject of assay [1] is Trypanosoma cruzi. Description: In vitro antiparasitic activity against Trypanosoma cruzi (amastigotes). It is filed as functional, organism-based.
In assay [2] the test system is Trypanosoma cruzi. Description: In vitro antiparasitic activity against Trypanosoma cruzi (epimastigotes). It is filed as functional, organism-based.
Assay [3] deals with Trypanosoma cruzi. As to the kind of experiment: In vitro […] antiparasitic activity against Trypanosoma cruzi at 70 uM (amastigotes). It is filed as functional.
The subject of assay [4] is Trypanosoma cruzi. As to the kind of experiment: In vitro […] antiparasitic activity against Trypanosoma cruzi at 50 uM (amastigotes). The format is functional.

The IC50 is the midpoint of a concentration-inhibition curve. High values mean a need for much substance, low ones inhibition by little substance. As a reminder, the inhibition is the percentage by which the read-out fell short of the control. A higher inhibition goes with a response far below the control.

Consider `CCCCCCCCC(O)(P(=O)(O)O)P(=O)(O)O`, for which the IC50 in the assay with Trypanosoma cruzi [1] is 65.8 µM; in the assay with Trypanosoma cruzi [2] it was over 70 µM.
The compound `O=P(O)(O)C(O)(COc1ccc(Oc2ccccc2)cc1)P(=O)(O)O` came in with an IC50 in the assay with Trypanosoma cruzi [1] of over 50 µM. In the assay with Trypanosoma cruzi [3], at 70 µM the inhibition was 23%.
As to `O=P(O)(O)C(O)(COc1ccc(Cl)cc1Cl)P(=O)(O)O`, the IC50 in the assay with Trypanosoma cruzi [1] is over 50 µM. At 50 µM the inhibition in the assay on Trypanosoma cruzi [4] was 37%.
As for `CCCCCCCC(O)(P(=O)(O)O)P(=O)(O)O`, the IC50 in the assay on Trypanosoma cruzi [1] and with Trypanosoma cruzi [2] was over 70 µM in each case. In the assay on Trypanosoma cruzi [3], this compound displayed an inhibition at 70 µM of 41%.
Regarding `CCCCCC(O)(P(=O)(O)O)P(=O)(O)O`, the IC50 with Trypanosoma cruzi [1] is 70 µM; with Trypanosoma cruzi [2] it was over 70 µM. The compound also gave an inhibition at 70 µM with Trypanosoma cruzi [3] of 34%.
In the assay with Trypanosoma cruzi [1], `O=P(O)(O)C(O)(COc1ccccc1)P(=O)(O)O` came in with an IC50 of over 70 µM. In the assay on Trypanosoma cruzi [3], this compound showed an inhibition at 70 µM of 16%.
For `CCCC(O)(P(=O)(O)O)P(=O)(O)O`, the IC50 with Trypanosoma cruzi [1] is 21.4 µM; in the assay on Trypanosoma cruzi [2] it was over 70 µM.
With `CCCCCCCCCC(O)(P(=O)(O)O)P(=O)(O)O`, the IC50 in the assay on Trypanosoma cruzi [1] and with Trypanosoma cruzi [2] was over 70 µM each time. At 70 µM the inhibition in the assay with Trypanosoma cruzi [3] was 10%.
Regarding `CCCCCCC(O)(P(=O)(O)O)P(=O)(O)O`, the figures for the IC50 with Trypanosoma cruzi [1] and in the assay with Trypanosoma cruzi [2] were 18.1 µM and over 70 µM, respectively.
In the assay on Trypanosoma cruzi [1], `CCCCCCCCCCCCCC(O)(P(=O)(O)O)P(=O)(O)O` displayed an IC50 of 53.5 µM. This lies in the double-digit micromolar range.
Same read-out and setting: the same measure for `NCCCC(O)(P(=O)(O)O)P(=O)(O)O` [ALENDRONIC ACID]: 65 µM; for `NCCC(O)(P(=O)(O)O)P(=O)(O)O` [PAMIDRONIC ACID]: 65 µM.
As to `O=P(O)(O)C(O)(Cc1cccnc1)P(=O)(O)O` [RISEDRONIC ACID], the IC50 in the assay on Trypanosoma cruzi [1] stood at 300 µM.
